Laboratory results reported in patent EP4759807A1, “PROTEOLYSIS TARGETING CHIMERA COMPOUND FOR DEGRADING IRAK4 AND USE THEREOF” (Shenzhen Zhongge Biological Technology Co., Ltd., priority 2023, dated 2025).
Where two headings read alike, the source gives them in different places.

Molecular target: T1, IRAK4 (Homo sapiens, UniProt Q9NWZ3)
T1 sequence (Q9NWZ3 1-460): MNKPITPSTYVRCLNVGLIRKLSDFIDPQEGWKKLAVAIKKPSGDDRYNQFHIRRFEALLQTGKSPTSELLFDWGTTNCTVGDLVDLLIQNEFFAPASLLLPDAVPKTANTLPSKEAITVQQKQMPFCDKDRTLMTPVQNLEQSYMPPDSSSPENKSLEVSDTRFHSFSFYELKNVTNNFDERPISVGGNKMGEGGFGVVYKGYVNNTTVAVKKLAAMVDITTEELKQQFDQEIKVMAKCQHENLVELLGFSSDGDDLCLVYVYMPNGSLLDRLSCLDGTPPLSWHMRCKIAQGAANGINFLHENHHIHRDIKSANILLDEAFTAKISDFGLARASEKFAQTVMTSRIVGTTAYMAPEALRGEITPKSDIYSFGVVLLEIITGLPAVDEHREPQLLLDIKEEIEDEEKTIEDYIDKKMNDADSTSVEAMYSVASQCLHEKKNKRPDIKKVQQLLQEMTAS
Assay: Hibit fluorescence detection of proteolysis (IRAK4-HiBiT in HEK293T cells)
Type: cell-based
Design: host or cells: HEK293T (ATCC)
Conditions: for Dmax: HEK-293T
Procedure, shortened: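 Degradation read-out: luminescence from lytic HiBiT detection (15 min, room temperature) after 24 h compound exposure (37 °C, 5% CO2) of HEK293T cells transiently expressing IRAK4 fused to a HiBiT tag. Data fitted to a bell-shaped four-parameter model giving two EC50 values.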

[1] = IRAK4-HiBiT, HEK293T cells, 24 h

SMILES | Dmax [%] | DC50 [1] [pM] | Dmax (IRAK4-HiBiT, HEK293T cells, 24 h, read-out: Dmax) [%] | DC50 (IRAK4-HiBiT, HEK293T cells, 24 h, read-out: DC50) [pM]
C[C@@H]1CN(C[C@H]2CC[C@H](n3cc(-n4cc(-c5ccc6cc(C(N)=O)cnn56)nn4)c(C(F)F)n3)CC2)CCN1c1cccc2c1n(C)c(=O)n2C1CCC(=O)NC1=O (stereo partly drawn) [Example 51, 7-(1-(3-(difluoromethyl)-1-((1R,4r)-4-(((3R)-4-(1-(2,6-dioxopiperidin-3-yl)-3-methyl-2-oxo-2,3-dihydro-1H-benzo[d]imidazol-4-yl)-3-methylpiperazin-1-yl)methyl)cyclohexyl)-1H-pyrazol-4-yl)-1H-1,2,3-triazol-4-yl)pyrrolo[1,2-b]pyridazine-3-carboxamide] | > 80 | < 500 |  | 
C[C@H]1CN(c2cccc3c2n(C)c(=O)n3C2CCC(=O)NC2=O)CCN1C[C@H]1CC[C@H](n2cc(-n3cc(-c4cnn5ccc(N6CCOCC6)nc45)nn3)c(C(F)F)n2)CC1 (some centres unmarked) [Example 52] | 70 to 80 | 500 to 1000 |  | 
Cn1c(=O)n(C2CCC(=O)NC2=O)c2cccc(N3CCC4(CCCN(C[C@H]5CC[C@H](n6cc(-n7cc(-c8cnn9ccc(N%10CCOCC%10)nc89)nn7)c(C(F)F)n6)CC5)C4)CC3)c21 (some centres unmarked) [Example 53, 3-(4-(2-(((1r,4r)-4-(3-(difluoromethyl)-4-(4-(5-morpholinopyrazolo[1,5-a]pyrimidin-3-yl)-1H-1,2,3-triazol-1-yl)-1H-pyrazol-1-yl)cyclohexyl)methyl)-2,9-diazaspiro[5.5]undecan-9-yl)-3-methyl-2-oxo-2,3-dihydro-1H-benzo[d]imidazol-1-yl)piperidine-2,6-dione] | 70 to 80 | 500 to 1000 |  | 
Cn1c(=O)n(C2CCC(=O)NC2=O)c2cccc(N3CCN(C[C@H]4CC[C@H](n5cc(-n6cc(-c7ccc8cc(C(N)=O)cnn78)nn6)c(C(F)F)n5)CC4)CC3)c21 (some centres unmarked) [Example 57] | 70 to 80 | < 500 |  | 
Cn1c(=O)n(C2CCC(=O)NC2=O)c2cccc(N3CC(N4CCN(C[C@H]5CC[C@H](n6cc(-n7cc(-c8ccc9cc(C(N)=O)cnn89)nn7)c(C(F)F)n6)CC5)CC4)C3)c21 (some centres unmarked) [Example 63, 7-(1-(3-(difluoromethyl)-1-((1r,4r)-4-((4-(1-(1-(2,6-dioxopiperidin-3-yl)-3-methyl-2-oxo-2,3-dihydro-1H-benzo[d]imidazol-4-yl)azetidin-3-yl)piperazin-1-yl)methyl)cyclohexyl)-1H-pyrazol-4-yl)-1H-1,2,3-triazol-4-yl)pyrrolo[1,2-b]pyridazine-3-carboxamide] | 60 to 70 | < 500 |  | 
Cn1c(=O)n(C2CCC(=O)NC2=O)c2cccc(C#CCOC3CCN(C[C@H]4CC[C@H](n5cc(-n6cc(-c7ccc8cc(C(N)=O)cnn78)nn6)c(C(F)F)n5)CC4)CC3)c21 (some centres unmarked) [Example 65] | 60 to 70 | < 500 |  | 
Cn1c(=O)n(C2CCC(=O)NC2=O)c2cccc(NC3CCN(C[C@H]4CC[C@H](n5cc(-n6cc(-c7ccc8cc(C(N)=O)cnn78)nn6)c(C(F)F)n5)CC4)CC3)c21 (some centres unmarked) [Example 66, 7-(1-(3-(difluoromethyl)-1-((1r,4r)-4-((4-((1-(2,6-dioxopiperidin-3-yl)-3-methyl-2-oxo-2,3-dihydro-1H-benzo[d]imidazol-4-yl)amino)piperidin-1-yl)methyl)cyclohexyl)-1H-pyrazol-4-yl)-1H-1,2,3-triazol-4-yl)pyrrolo[1,2-b]pyridazine-3-carboxamide] | 70 to 80 | < 500 |  | 
Cn1c(=O)n(C2CCC(=O)NC2=O)c2cccc(N3CCN(C4CN(C[C@H]5CC[C@H](n6cc(-n7cc(-c8ccc9cc(C(N)=O)cnn89)nn7)c(C(F)F)n6)CC5)C4)CC3)c21 (some centres unmarked) [Example 67] | > 80 | < 500 |  | 
Cn1c(=O)n(C2CCC(=O)NC2=O)c2cccc(CN3CCN(C[C@H]4CC[C@H](n5cc(-n6cc(-c7ccc8cc(C(N)=O)cnn78)nn6)c(C(F)F)n5)CC4)CC3)c21 (some centres unmarked) [Example 68] | > 80 | < 500 |  | 
Cn1c(=O)n(C2CCC(=O)NC2=O)c2cccc(NC(=O)C3CCN(C[C@H]4CC[C@H](n5cc(-n6cc(-c7ccc8cc(C(N)=O)cnn78)nn6)c(C(F)F)n5)CC4)CC3)c21 (some centres unmarked) [Example 69, 7-(1-(3-(difluoromethyl)-1-((1r,4r)-4-((4-((1-(2,6-dioxopiperidin-3-yl)-3-methyl-2-oxo-2,3-dihydro-1H-benzo[d]imidazol-4-yl)carbamoyl)piperidin-1-yl)methyl)cyclohexyl)-1H-pyrazol-4-yl)-1H-1,2,3-triazol-4-yl)pyrrolo[1,2-b]pyridazine-3-carboxamide] | > 80 | > 5000 |  | 
NC(=O)c1cnn2c(-c3cn(-c4cn([C@H]5CC[C@H](CN6CCN(c7ccc8c(c7)C(=O)N(C7CCC(=O)NC7=O)C8=O)CC6)CC5)nc4C(F)F)nn3)ccc2c1 (some centres unmarked) [Example 70, 7-(1-(3-(difluoromethyl)-1-((1r,4r)-4-(4-(2-(2,6-dioxopiperidin-3-yl)-1,3-dioxoisoindolin-5-yl)piperazin-1-yl)methyl)cyclohexyl-1H-pyrazol-4-yl)-1H-1,2,3-triazol-4-yl)pyrrolo[1,2-b]pyridazine-3-carboxamide] | 70 to 80 | 1000 to 5000 |  | 
Cn1c(=O)n(C2CCC(=O)NC2=O)c2cccc(N3CCN(C4CCN(C[C@H]5CC[C@H](n6cc(-n7cc(-c8ccc9cc(C(N)=O)cnn89)nn7)c(C(F)F)n6)CC5)CC4)CC3)c21 (some centres unmarked) [Example 71] | > 80 | < 500 |  | 
NC(=O)c1cnn2c(-c3cn(-c4cn([C@H]5CC[C@H](CN6CCN(c7ccc8c(c7)CN(C7CCC(=O)NC7=O)C8=O)CC6)CC5)nc4C(F)F)nn3)ccc2c1 (some centres unmarked) [Example 72, 7-(1-(3-(difluoromethyl)-1-((1r,4r)-4-((4-(2-(2,6-dioxopiperidin-3-yl)-1-oxoisoindolin-5-yl)piperazin-1-yl)methyl)cyclohexyl)-1H-pyrazol-4-yl)-1H-1,2,3-triazol-4yl)pyrrolo[1,2-b]pyridazine-3-carboxamide] | 60 to 70 | < 500 |  | 
Cn1c(=O)n(C2CCC(=O)NC2=O)c2cccc(N3CC(CN4CCC(n5cc(-n6cc(-c7ccc8cc(C(N)=O)cnn78)nn6)c(C(F)F)n5)CC4)C3)c21 (centres unmarked) [Example 73, 7-(1-(3-(difluoromethyl)-1-(1-((1-(1-(2,6-dioxopiperidin-3-yl)-3-methyl-2-oxo-2,3-dihydro-1H-benzo[d]imidazol-4-yl)azetidin-3-yl)methyl)piperidin-4-yl)-1H-pyrazol-4-yl)-1H-1,2,3-triazol-4-yl) pyrrolo[1,2-b]pyridazine-3-carboxamide] | < 60 | < 500 |  | 
Cn1c(=O)n(C2CCC(=O)NC2=O)c2cccc(N3CCC(CN4CCC(n5cc(-n6cc(-c7ccc8cc(C(N)=O)cnn78)nn6)c(C(F)F)n5)CC4)CC3)c21 (centres unmarked) [Example 74, 7-(1-(3-(difluoromethyl)-1-(1-((1-(1-(2,6-dioxopiperidin-3-yl)-3-methyl-2-oxo-2,3-dihydro-1H-benzo[d]imidazol-4-yl)piperidin-4-yl)methyl)piperidin-4-yl)-1H-pyrazol-4-yl)-1H-1,2,3-triazol-4-yl)pyrrolo[1,2-b]pyridazine-3-carboxamide] |  |  | 70 to 80 | < 500
NC(=O)c1cnn2c(-c3cn(-c4cn(C5CCN(CC6CN(c7ccc8c(c7)C(=O)N(C7CCC(=O)NC7=O)C8=O)C6)CC5)nc4C(F)F)nn3)ccc2c1 (centres unmarked) [Example 75] | > 80 | 500 to 1000 |  | 
